Values of other authors in article PMC9795861, “Inclusion complexes of the steroid hormones 17β-estradiol and progesterone with β- and γ-cyclodextrin hosts: syntheses, X-ray structures, thermal analyses and API solubility enhancements” (Beilstein Journal of Organic Chemistry, 2022).
Read-outs that look alike come from different tables or passages of the source.

Columns and labels:
[1] = set-up: method as in earlier work

| aqueous solubility (at 25 °C, pure progesterone, ref 6-8 (b3)) | aqueous solubility (at 27 °C, ethinylestradiol) | oral bioavailability relative to that of BES [1] | SMILES |
| --- | --- | --- | --- |
| 8.81 × 10^−3 mg·cm^−3 | – | – | CC(=O)[C@H]1CC[C@H]2[C@@H]3CCC4=CC(=O)CC[C@]4(C)[C@H]3CC[C@]12C [progesterone] |
| – | 11.3 × 10^−3 mg·cm^−3 | significantly higher | C#C[C@]1(O)CC[C@H]2[C@@H]3CCc4cc(O)ccc4[C@H]3CC[C@@]21C [ethinylestradiol] |
